Patent US20220073536A1 (Rigel Pharmaceuticals, Inc., priority 2003, published 2022)

What was measured:
[1] = system: cultured human mast cells (CHMC); assay: CHMC low cell density IgE activation: tryptase assay; assay type: cell-based; conditions: low cell density CHMC, IgE activation, tryptase release
How it was run: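 CHMC at 1000–1500 cells/well were preincubated 1 hr at 37° C., stimulated with anti-IgE for 30 minutes at 37° C., then pelleted. Supernatant tryptase was measured with a fluorogenic substrate after 30 min at room temperature, against un-stimulated control wells.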

[2] = system: cultured human mast cells (CHMC); assay: CHMC low cell density ionomycin activation: tryptase assay; assay type: cell-based; conditions: low cell density CHMC, tryptase release, 3 point, read-out: LD Tryptase, CHMC, Iono, 3 pt
[3] = 3 point, read-out: LD Tryptase, CHMC, IgE, 3 pt
[4] = 8 point, read-out: LD Tryptase, CHMC, IgE, 8 pt
[5] = Homo sapiens, Mast cell, 3 point, read-out: LD Tryptase, CHMC, IgE, 3 pt
[6] = Homo sapiens, Mast cell, 8 point, read-out: LD Tryptase, CHMC, IgE, 8 pt

SMILES	IC50 [1, 3]	IC50 [1, 4]	IC50 [2]	IC50 [1, 5]	IC50 ([2]; Homo sapiens, Mast cell)	IC50 [1, 6]
Cc1cc(N(C)c2nc(Nc3ccc(-c4cocn4)cc3)ncc2F)cc(C)c1Cl [Compound 604]	–	–	–	< 10 µM	> 10 µM	–
COc1cc(N(C)c2nc(Nc3ccc(-c4cocn4)cc3)ncc2F)ccc1Cl [Compound 606, N4-(4-Chloro-3-methoxyphenyl)-5-fluoro-N4-methyl-N2-[4-(oxazol-4-yl)phenyl]-2,4-pyrimidinediamine]	–	–	–	< 10 µM	< 10 µM	< 10 µM
CNC(=O)c1cc(Nc2ncc(F)c(Nc3ccc(Cl)c(OC)c3)n2)ccc1Cl [Compound 607, N4-(4-Chloro-3-methoxyphenyl)-N2-[4-chloro-3-(N-methylamino)carbonylphenyl]-5-fluoro-2,4-pyrimidinediamine]	–	–	–	< 10 µM	> 10 µM	< 10 µM
CNC(=O)c1cc(Nc2ncc(F)c(Nc3ccc(Cl)c(C(F)(F)F)c3)n2)ccc1Cl [Compound 609]	–	–	–	< 10 µM	> 10 µM	< 10 µM
CNC(=O)c1cc(Nc2ncc(F)c(N(C)c3cc(C)c(Cl)c(C)c3)n2)ccc1Cl [Compound 610, N4-(4-Chloro-3,5-dimethylphenyl)-N2-[4-chloro-3-(N-methylamino)carbonylphenyl]-5-fluoro-N4-methyl-2,4-pyrimidinediamine]	–	–	–	> 10 µM	> 10 µM	–
CNC(=O)c1ccc(Nc2ncc(F)c(Nc3ccc(Cl)c(C(F)(F)F)c3)n2)cc1Cl [Compound 612, N2-[3-Chloro-4-(N-methylamino)carbonylphenyl]-N4-(4-chloro-3-trifluoromethylphenyl)-5-fluoro-2,4-pyrimidinediamine]	–	–	–	< 10 µM	> 10 µM	< 10 µM
CNC(=O)c1ccc(Nc2ncc(F)c(N(C)c3cc(C)c(Cl)c(C)c3)n2)cc1Cl [Compound 613, N4-(4-Chloro-3,5-dimethylphenyl)-N2-[3-chloro-4-(N-methylamino)carbonylphenyl]-5-fluoro-N4-methyl-2,4-pyrimidinediamine]	–	–	–	< 10 µM	> 10 µM	–
Cc1cc(C)cc(Nc2ncc(F)c(Nc3ccc(OCCO)c(Cl)c3)n2)c1 [Compound 619, N4-[3-Chloro-4-(2-hydroxyethyleneoxy)phenyl]-N2-(3,5-dimethylphenyl)-5-fluoro-2,4-pyrimidinediamine]	< 10 µM	< 10 µM	< 10 µM	–	–	–
COc1cc(Nc2ncc(F)c(Nc3ccc(OCCO)c(Cl)c3)n2)cc(OC)c1 [Compound 620, N4-[3-Chloro-4-(2-hydroxyethyleneoxy)phenyl]-N2-(3,5-dimethoxyphenyl)-5-fluoro-2,4-pyrimidinediamine]	< 10 µM	< 10 µM	< 10 µM	–	–	–
Cc1cc(Nc2ncc(F)c(Nc3ccc(OCCO)c(Cl)c3)n2)cc(C)c1Cl [Compound 622, N2-(4-Chloro-3,5-dimethylphenyl)-N4-[3-chloro-4-(2-hydroxyethyleneoxy)phenyl]-5-fluoro-2,4-pyrimidinediamine]	< 10 µM	< 10 µM	> 10 µM	–	–	–

Further lines, results first:

IC50 [1, 3]	IC50 [1, 4]	IC50 [2]	IC50 [1, 5]	IC50 ([2]; Homo sapiens, Mast cell)	IC50 [1, 6]	SMILES
< 10 µM	< 10 µM	> 10 µM	–	–	–	CNC(=O)COc1ccc(Nc2nc(Nc3cc(C)cc(C)c3)ncc2F)cc1Cl [Compound 600, N4-[3-Chloro-4-(N-methylamino)carbonylmethyleneoxyphenyl]-N2-(3,5-dimethylphenyl)-5-fluoro-2,4-pyrimidinediamine]
< 10 µM	< 10 µM	> 10 µM	–	–	–	CNC(=O)COc1ccc(Nc2nc(Nc3cc(OC)cc(OC)c3)ncc2F)cc1Cl [Compound 601, N4-[3-Chloro-4-(N-methylamino)carbonylmethyleneoxyphenyl]-N2-(3,5-dimethoxylphenyl)-5-fluoro-2,4-pyrimidinediamine]
< 10 µM	< 10 µM	> 10 µM	–	–	–	CNC(=O)COc1ccc(Nc2nc(Nc3ccc(OC)c(Cl)c3)ncc2F)cc1Cl [Compound 602, N2-(3-Chloro-4-methoxyphenyl)-N4-[3-chloro-4-(N-methylamino)carbonylmethyleneoxyphenyl]-5-fluoro-2,4-pyrimidinediamine]
< 10 µM	> 10 µM	> 10 µM	–	–	–	CNC(=O)COc1ccc(Nc2nc(Nc3cc(C)c(Cl)c(C)c3)ncc2F)cc1Cl [Compound 603, N2-(4-Chloro-3,5-dimethylphenyl)-N4-[3-chloro-4-(N-methylamino)carbonylmethyleneoxyphenyl]-5-fluoro-2,4-pyrimidinediamine]
< 10 µM	< 10 µM	> 10 µM	–	–	–	CNC(=O)COc1ccc(Nc2nc(Nc3ccc4cc[nH]c4c3)ncc2F)cc1Cl [Compound 605, N4-[3-Chloro-4-(N-methylamino)carbonylmethyleneoxyphenyl]-5-fluoro-N2-(indol-6-yl)-2,4-pyrimidinediamine]
< 10 µM	–	> 10 µM	–	–	–	CNC(=O)COc1ccc(Nc2nc(Nc3ccc(Cl)c(C(=O)NC)c3)ncc2F)cc1Cl [Compound 608, N4-[3-Chloro-4-(N-methylamino)carbonylmethyleneoxyphenyl]-N2-[4-chloro-3-(N-methylamino)carbonylphenyl]-5-fluoro-2,4-pyrimidinediamine]
–	–	–	< 10 µM	> 10 µM	< 10 µM	CNC(=O)c1ccc(Nc2ncc(F)c(Nc3ccc(Cl)c(OC)c3)n2)cc1Cl [Compound 611, N4-(4-Chloro-3-methoxyphenyl)-N2-[3-chloro-4-(N-methylamino)carbonylphenyl]-5-fluoro-2,4-pyrimidinediamine]
< 10 µM	< 10 µM	< 10 µM	–	–	–	COC(=O)COc1ccc(Nc2nc(Nc3cc(C)cc(C)c3)ncc2F)cc1Cl [Compound 614, N4-[3-Chloro-4-(methoxycarbonyl)methyleneoxyphenyl]-N2-(3,5-dimethylphenyl)-5-fluoro-2,4-pyrimidinediamine]
< 10 µM	< 10 µM	< 10 µM	–	–	–	COC(=O)COc1ccc(Nc2nc(Nc3cc(OC)cc(OC)c3)ncc2F)cc1Cl [Compound 615, N4-[3-Chloro-4-(methoxycarbonyl)methyleneoxyphenyl]-N2-(3,5-dimethoxyphenyl)-5-fluoro-2,4-pyrimidinediamine]
< 10 µM	< 10 µM	< 10 µM	–	–	–	COC(=O)COc1ccc(Nc2nc(Nc3ccc(OC)c(Cl)c3)ncc2F)cc1Cl [Compound 616, N4-[3-Chloro-4-(methoxycarbonyl)methyleneoxyphenyl]-N2-(3-chloro-4-methoxyphenyl)-5-fluoro-2,4-pyrimidinediamine]
< 10 µM	< 10 µM	< 10 µM	–	–	–	COC(=O)COc1ccc(Nc2nc(Nc3cc(C)c(Cl)c(C)c3)ncc2F)cc1Cl [Compound 617, N2-(4-Chloro-3,5-dimethylphenyl)-N4-[3-chloro-4-(methoxycarbonyl)methyleneoxyphenyl]-5-fluoro-2,4-pyrimidinediamine]
< 10 µM	< 10 µM	> 10 µM	–	–	–	COC(=O)COc1ccc(Nc2nc(Nc3ccc4[nH]ccc4c3)ncc2F)cc1Cl [Compound 618, N4-[3-Chloro-4-(methoxycarbonyl)methyleneoxyphenyl]-5-fluoro-N2-(indol-5-yl)-2,4-pyrimidinediamine]
< 10 µM	< 10 µM	> 10 µM	–	–	–	COc1ccc(Nc2ncc(F)c(Nc3ccc(OCCO)c(Cl)c3)n2)cc1Cl [Compound 621, N4-[3-Chloro-4-(2-hydroxyethyleneoxy)phenyl]-N2-(3-chloro-4-methoxyphenyl)-5-fluoro-2,4-pyrimidinediamine]
